We go through two molecules from article PMC10112232, “Comparison of Toxicities among Different Bumped Kinase Inhibitor Analogs for Treatment of Cryptosporidiosis” (Antimicrobial Agents and Chemotherapy, 2023).

Like-named read-outs stand apart in the source and are kept apart here.

What is called CC50 is the concentration giving 50% cytotoxicity. One may read the EC50 as the concentration that produces a half-maximal response. As a reminder, the Cmax is the peak of the concentration-time curve. A word on the IC50: it is the concentration that gives 50% inhibition. Broadly, the solubility is the dissolved amount per volume that the medium holds.

One data set deals with CRL-8155 cells. On the set-up: method as in PMID 30830766. The following applies: cited from earlier work.
Data set [1] in a line: 14-day multidose rat toxicity study. Format: in vivo. As to conditions: rats. On the procedure: A control group of male and female rats were administered vehicle only for controls. […] Observations of feeding and general health were made twice daily. Clinical assessments were made at 1 h after each treatment. Blood was collected for hematology and blood chemistry before the first dose and prior to euthanasia. Necropsy and histology of organs (Liver, heart, lung, kidney, spleen, thymus, brain, spinal cord, nerves of the front and back legs, including muscle, bone marrow femur, stomach, small and large intestine, including lymph nodes, and femur and sternum, including epiphyseal plates, distal hind limb, and thyroid gland) were performed after euthanasia.

The subject of data set [2] is Nluc expressing C. parvum. On the set-up: method as in PMID 30830766. The following applies: IFN-γ KO mice, twice daily (BID) for 5 days; cited from earlier work.
For the next data set, the system named is HepG2 cells. On the set-up: method as in PMID 30830766. The following applies: cited from earlier work.
Data set [3] deals with Nluc expressing C. parvum. On the set-up: method as in PMID 30830766. As to conditions: cited from earlier work.
A short description of data set [4]: Plasma levels and toxicity signs in treated piglets. The class given is in vivo, piglet. The following applies: for Cmax: pig, plasma, 5 mg/kg, 5 mg/kg BID.
For the next data set, the system named is C. hominis. The data set is described as follows: Efficacy in neonatal gnotobiotic piglets infected with C. hominis. Format: in vivo. As to conditions: 5 mg/kg BID. On the procedure:
Rectal swabs were processed for oocyst count and DNA measurement. The plot represents mean ± SEM. Wilcoxon matched-pairs signed rank test was conducted using GraphPad Prism 7.03. […] The 5 day doses were given on days 0–4, the 8 day doses were given on days 0–7.
(§1) Methods for synthesis of BKIs ([17], [23]), efficacy against Nluc expressing C. parvum in infected adult IFN-γ KO mice ([6], [9]), in vivo mouse GI tract tissue exposure by LC/MS-MS analysis ([18], [28]), PK analysis of mouse plasma and brain tissue BKI concentrations by LC/MS-MS analysis ([29]), in vivo rat and dog cardiotoxicity screen ([30]), efficacy against IOWA-II strain C. parvum in infected neonatal calves ([13]), efficacy against C. hominis in infected piglets ([12]), in vitro inhibition of C. parvum CDPK1 (CpCDPK1) and human tyrosine kinase SRC (HsSRC) activity ([31]), in vitro inhibition of hERG ([32]), Nluc expressing C. parvum in vitro growth inhibition in infected HCT-8 cells ([6]), in vitro cytotoxicity in CRL-8155 and HepG2 cells ([29]), and mouse locomotor activity box ([33], [34]) have all been previously described. Analytes were measured by LC/MS-MS on an Acquity ultra performance liquid chromatography (UPLC) system in tandem with a Xevo TQ-S mass spectrometer (Waters, Milford, MA, USA).

The nature of data set [5]: Metabolite identification in hepatocytes. Format: in vitro ADME, mice, rats, dogs, monkeys, and humans. The following applies: all tested species, product 1770-O-glucuronide. On the procedure: BKI-1841 was also evaluated in these assays (Table 1). All results from these assays were favorable, including falling within the solubility range that correlated with efficacy for the AC scaffold ([17]).

Data set [6] has as its system Nluc expressing C. parvum. Briefly: Nluc expressing C. parvum in vitro growth inhibition in infected HCT-8 cells. The class given is cell-based. As to conditions: Cryptosporidium parvum.
Description: as §1

Data set [7] in a line: In vitro cytotoxicity in CRL-8155 cells. Format: cell-based. As to conditions: human.
Description: as §1

In a further data set the target is hERG (Homo sapiens, UniProt Q12809). The data set is described as follows: In vitro inhibition of hERG. The class given is biochemical.
Description: as §1
(hERG is a cardiac potassium channel; its block is linked to QT prolongation.)

For data set [8], the system named is Nluc expressing C. parvum. Briefly: Efficacy in IFN-γ KO mice infected with Nluc expressing C. parvum. The following applies: for difference in parasite excretion vs untreated control: n = 3. The class given is in vivo. On the procedure: BKI-1841 was also tested at doses of 60, 30, 15, and 5 mg/kg once daily (QD) for 5 days, resulting in a minimum efficacious dose of 30 mg/kg that cleared parasite excretion to background levels by day 13 postinfection (Fig. 4).
FIG 4 Efficacy of BKI-1841 in interferon-γ knockout mice infected with nanoluciferase expressing C. parvum. Treatments were separated into two separate experiments for BKI-1841. Untreated control groups for each experiment are grouped with their associated treatment in the figure keys. Dotted line denotes the limit of detection. Treatments were dosed on days 6 through 10 postinfection. […] QD = once daily.
as §1

Data set [9] can be described thus: In vitro cytotoxicity in HepG2 cells. Format: cell-based. The following applies: human.
Description: as §1

In data set [10] the target is human tyrosine kinase SRC (HsSRC) (Homo sapiens, UniProt P12931). Briefly: In vitro inhibition of HsSRC. Format: biochemical. As to conditions: read-out: HsSR IC50.
Description: as §1

The next data set in a line: Aqueous solubility. Format: physicochemical. An excerpt: TABLE 1 In vitro properties of bumped kinase inhibitors^a | column: Solubility at pH 2 (μM); Solubility at pH 6.5 (μM)
In data set [11] the target is T1, C. parvum calcium dependent protein kinase 1 (CpCDPK1) (Cryptosporidium parvum, UniProt A3FQ16).
T1 sequence (A3FQ16 1-538): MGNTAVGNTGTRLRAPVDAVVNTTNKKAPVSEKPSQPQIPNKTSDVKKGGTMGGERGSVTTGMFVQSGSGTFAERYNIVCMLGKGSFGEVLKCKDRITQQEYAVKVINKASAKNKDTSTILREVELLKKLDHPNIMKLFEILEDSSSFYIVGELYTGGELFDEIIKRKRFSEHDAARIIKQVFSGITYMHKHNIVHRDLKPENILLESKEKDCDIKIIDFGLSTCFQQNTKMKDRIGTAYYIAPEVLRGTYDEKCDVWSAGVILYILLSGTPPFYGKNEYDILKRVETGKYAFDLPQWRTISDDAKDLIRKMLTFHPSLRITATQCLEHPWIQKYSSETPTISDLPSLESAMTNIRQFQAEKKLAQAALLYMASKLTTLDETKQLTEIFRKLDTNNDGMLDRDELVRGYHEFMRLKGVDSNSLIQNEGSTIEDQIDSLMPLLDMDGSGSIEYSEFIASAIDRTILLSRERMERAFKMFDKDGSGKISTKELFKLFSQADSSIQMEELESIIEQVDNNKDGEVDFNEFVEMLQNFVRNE
The data set is described as follows: In vitro inhibition of CpCDPK1. Format: biochemical.
Description: as §1

Sequence of human tyrosine kinase SRC (HsSRC) (P12931 whole entry): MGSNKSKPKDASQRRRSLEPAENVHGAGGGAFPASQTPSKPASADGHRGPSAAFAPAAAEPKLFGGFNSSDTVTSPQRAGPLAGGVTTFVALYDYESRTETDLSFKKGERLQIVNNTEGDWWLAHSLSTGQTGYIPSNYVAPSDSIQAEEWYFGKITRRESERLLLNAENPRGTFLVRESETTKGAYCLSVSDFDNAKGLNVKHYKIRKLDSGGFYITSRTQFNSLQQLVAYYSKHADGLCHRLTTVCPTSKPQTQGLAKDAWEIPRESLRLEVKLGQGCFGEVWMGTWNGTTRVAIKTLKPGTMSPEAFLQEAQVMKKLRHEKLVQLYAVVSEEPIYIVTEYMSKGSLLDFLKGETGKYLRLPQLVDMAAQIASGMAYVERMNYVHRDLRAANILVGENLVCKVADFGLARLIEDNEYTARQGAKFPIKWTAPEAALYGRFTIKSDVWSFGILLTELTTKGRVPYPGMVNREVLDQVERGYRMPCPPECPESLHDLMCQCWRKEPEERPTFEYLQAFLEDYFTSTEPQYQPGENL
Sequence of hERG (Q12809 whole entry): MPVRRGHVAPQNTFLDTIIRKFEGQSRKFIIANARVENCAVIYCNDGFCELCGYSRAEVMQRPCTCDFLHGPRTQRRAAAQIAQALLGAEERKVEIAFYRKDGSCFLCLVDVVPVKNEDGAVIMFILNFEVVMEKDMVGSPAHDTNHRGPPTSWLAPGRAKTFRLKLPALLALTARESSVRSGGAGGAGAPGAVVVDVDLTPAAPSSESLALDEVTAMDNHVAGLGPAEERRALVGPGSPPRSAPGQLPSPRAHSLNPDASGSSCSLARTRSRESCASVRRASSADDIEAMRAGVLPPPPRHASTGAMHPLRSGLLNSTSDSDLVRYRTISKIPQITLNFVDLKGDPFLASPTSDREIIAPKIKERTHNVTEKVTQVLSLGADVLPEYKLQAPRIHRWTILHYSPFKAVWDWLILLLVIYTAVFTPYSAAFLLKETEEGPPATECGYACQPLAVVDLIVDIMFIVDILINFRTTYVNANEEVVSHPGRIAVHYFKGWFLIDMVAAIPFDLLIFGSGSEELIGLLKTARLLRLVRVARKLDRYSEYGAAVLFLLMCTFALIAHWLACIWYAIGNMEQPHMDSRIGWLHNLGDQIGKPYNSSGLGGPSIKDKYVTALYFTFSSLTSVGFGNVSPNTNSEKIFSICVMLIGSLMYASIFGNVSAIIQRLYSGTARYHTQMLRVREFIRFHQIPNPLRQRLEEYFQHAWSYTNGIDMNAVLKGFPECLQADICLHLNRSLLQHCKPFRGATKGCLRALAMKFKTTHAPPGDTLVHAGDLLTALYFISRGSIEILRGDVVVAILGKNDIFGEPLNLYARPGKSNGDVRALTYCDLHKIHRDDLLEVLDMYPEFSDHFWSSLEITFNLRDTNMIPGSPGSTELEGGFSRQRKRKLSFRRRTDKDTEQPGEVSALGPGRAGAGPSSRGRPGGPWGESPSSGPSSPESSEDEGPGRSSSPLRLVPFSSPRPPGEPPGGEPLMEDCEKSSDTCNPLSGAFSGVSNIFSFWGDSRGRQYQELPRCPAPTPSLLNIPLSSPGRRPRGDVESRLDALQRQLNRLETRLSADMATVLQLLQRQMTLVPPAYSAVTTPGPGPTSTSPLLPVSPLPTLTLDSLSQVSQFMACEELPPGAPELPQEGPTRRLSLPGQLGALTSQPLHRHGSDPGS

As for `CCOc1ccc2cc(-c3nn(C(C)(C)CCO)c(N)c3C(N)=O)ccc2c1` [BKI-1770], the CC50 in the data set with CRL-8155 cells and in the data set on HepG2 cells was over 80 µM in each case. Further, the values for the plasma concentration in data set [1] (15 mg/kg group) and in data set [1] (375 mg/kg group) were 2400 nM and 11800 nM, respectively. Besides, the toxicity findings result in data set [1] (oral 15 mg/kg QD, 14 days) is “no signs of toxicity”; in data set [1] (oral 75 mg/kg QD, 14 days) it was “some signs of bone toxicity, including thickened epiphyseal plates and increased spongiosa”; in data set [1] (oral 375 mg/kg QD), “euthanized after 7 doses due to extreme signs of toxicity”. Also, in data set [2], the minimum efficacious dose is 30 mg/kg. For the same molecule, the EC50 in [3] was 0.5 µM. The “visible signs of toxicity” value in [4] (5 mg/kg BID for 5 or 8 days) is listed as “no visible signs of toxicity”. Also, the Cmax in [4] (at 2 h post dose 5, read-out: plasma observed Cmax) worked out at 2100 ± 1400 nM; in data set [4] (at 2 h post dose 8, read-out: plasma observed Cmax), 900 ± 400 nM. For the same molecule, the “oocyst counts in feces vs controls” value with C. hominis (5-day treatment (P = 0.001)) and in the data set with C. hominis (8-day treatment (P = 0.0168)) was “significantly reduced” each time. In addition, the diarrhea scores result in the data set on C. hominis (both 5- and 8-day treatment groups) was “significantly reduced”. Also, the “main mechanism of metabolism” value in [5] is “glucuronylation”.

`CCOc1ccc2cc(-c3nn(C4CCOCC4)c(N)c3C(N)=O)ccc2n1` [BKI-1841] displayed an EC50 in data set [6] of 0.7 µM. Besides, the cytotoxic concentration (CC50) in data set [7] and in [9] was over 80 µM throughout. Moreover, the IC50 against hERG is over 30 µM; in data set [10], over 10 µM; in data set [11], 0.003 µM. In addition, the “difference in parasite excretion vs untreated control” value in data set [8] (5 mg/kg QD days 6-10 postinfection) is given as “no significant difference”; in data set [8] (15 mg/kg QD days 6-10 postinfection), “no significant difference”; in data set [8] (30 mg/kg QD days 6-10 postinfection) it was “Significant differences”; in data set [8] (60 mg/kg QD days 6-10 postinfection), “Significant differences”. Besides, in data set [8] (IFN-γ KO mice, once daily (QD) for 5 days, cleared parasite excretion to background by day 13 postinfection), the minimum efficacious dose is on record as 30 mg/kg. The solubility was over 100 µM in “Aqueous solubility” (aqueous medium at pH 2, pH 2, simulated gastric fluid, read-out: Solubility at pH 2) and over 100 µM in the data set “Aqueous solubility” (aqueous medium at pH 6.5, pH 6.5, aqueous buffer, read-out: Solubility at pH 6.5).
